Tests used:
Format in all cases: cell-based
[1] = molecular target: T1, S170A/E837A:F801A/E837A heterodimer (Rattus norvegicus, UniProt P48442, E837A/F801A/S170A); assay: IP-One trans-activation assay, co-expression 1:1 in HEK293T
T1 construct: mGluR5 signal peptide (N); expressed in transfected cells; host or cells: HEK293T
Experimental: (§1) Human embryonic kidney (HEK) 293T cells were cultured in DMEM supplemented with 10% dFBS and 1% P/S at 37 °C and 5% CO2. 48 h prior to assay, transient transfection was performed using Lipofectamine 2000 as the transfection reagent. White opaque 96-well culture plates (PerkinElmer, Waltham, MA, USA) were used for the ELISA and the TR-FRET dimerization assay, while clear tissue culture treated 96-well plates (Corning, Corning, NY, USA) were used for the IP-One assay. Both plate types were coated with poly-D-lysine before addition of cells and transfection mix. 0.25 μl/well of Lipofectamine 2000 were diluted in 25 μl/well of Opti-MEM and incubated at room temperature (RT) for 5 min. 0.03 μg/well of DNA was diluted in 25 μl/well of Opti-MEM, and subsequently mixed with the Lipofectamine 2000 dilution and incubated 20 min at RT before addition to the plates. Cell suspensions of 170.000 HEK293T cells/mL were prepared in complete growth medium and 100 μl/well (17.000 cells/well) was added to the plates, which were incubated for 48 h at 37 °C and 5% CO2 before performing assays.
(§2) Functional activity was measured using the IP-One assay, which is an IP1 accumulation assay. For agonist testing, ligands were prepared in final concentrations in ligand buffer (HBSS, 20 mM HEPES, pH 7.4 supplemented with 20 mM LiCl). Cells were washed once with 100 μl/well of assay buffer (HBSS, 20 mM HEPES, pH 7.4) and 50 μl/well of agonist solution was added after which plates were incubated at 37 °C for 30 min. Subsequently, ligand solutions were removed and cells were washed with 100 μl/well of assay buffer. Cell lysis was performed by addition of 30 μl/well of IP-One Conjugate & Lysis Buffer (Cisbio Bioassays, Codolet, France) and plates were incubated at RT for 30 min. Afterwards, 30 μl/well of assay buffer was added to dilute the cell lysate. 10 μl/well of cell lysate was transferred from the 96-well plate to a 384-well Optiplate and 10 μl/well of detection solution (Assay buffer + 2.5% of anti-IP1 antibody cryptate Terbium conjugate + 2.5% IP1-d2 conjugate (Cisbio Bioassays, Codolet, France)) was also added. The 384-well plate was incubated for 1 h at RT in dark before being measured on an EnVision plate reader (PerkinElmer, Waltham, MA, USA). Upon excitation at 340 nm, emission at 615 nm and 665 nm was measured, and the FRET ratio (665 nm/615 nm) was converted to IP1 concentrations by interpolating values from an IP1 standard curve generated from a provided IP1 calibrator (Cisbio Bioassays, Codolet, France). When testing allosteric modulators, cells were pre-incubated for 30 min at 37 °C with 50 μl/well of ligand buffer supplemented with allosteric modulator and a final concentration of 1% DMSO. Afterwards, the buffer solution was removed and 50 μl/well of agonist solution in ligand buffer supplemented with allosteric modulator and a final concentration of 1% DMSO was added. Plates were incubated for 30 min at 37 °C followed by one wash in 100 μl/well of assay buffer. Cell lysis and detection was performed as described above.

[2] = molecular target: T2, S170A:F801A/E837A heterodimer (Rattus norvegicus, UniProt P48442, E837A/F801A/S170A); assay: as above
T2 construct: mGluR5 signal peptide (N); expressed in transfected cells; host or cells: HEK293T
T2 sequence (P48442 20-1079 S170A): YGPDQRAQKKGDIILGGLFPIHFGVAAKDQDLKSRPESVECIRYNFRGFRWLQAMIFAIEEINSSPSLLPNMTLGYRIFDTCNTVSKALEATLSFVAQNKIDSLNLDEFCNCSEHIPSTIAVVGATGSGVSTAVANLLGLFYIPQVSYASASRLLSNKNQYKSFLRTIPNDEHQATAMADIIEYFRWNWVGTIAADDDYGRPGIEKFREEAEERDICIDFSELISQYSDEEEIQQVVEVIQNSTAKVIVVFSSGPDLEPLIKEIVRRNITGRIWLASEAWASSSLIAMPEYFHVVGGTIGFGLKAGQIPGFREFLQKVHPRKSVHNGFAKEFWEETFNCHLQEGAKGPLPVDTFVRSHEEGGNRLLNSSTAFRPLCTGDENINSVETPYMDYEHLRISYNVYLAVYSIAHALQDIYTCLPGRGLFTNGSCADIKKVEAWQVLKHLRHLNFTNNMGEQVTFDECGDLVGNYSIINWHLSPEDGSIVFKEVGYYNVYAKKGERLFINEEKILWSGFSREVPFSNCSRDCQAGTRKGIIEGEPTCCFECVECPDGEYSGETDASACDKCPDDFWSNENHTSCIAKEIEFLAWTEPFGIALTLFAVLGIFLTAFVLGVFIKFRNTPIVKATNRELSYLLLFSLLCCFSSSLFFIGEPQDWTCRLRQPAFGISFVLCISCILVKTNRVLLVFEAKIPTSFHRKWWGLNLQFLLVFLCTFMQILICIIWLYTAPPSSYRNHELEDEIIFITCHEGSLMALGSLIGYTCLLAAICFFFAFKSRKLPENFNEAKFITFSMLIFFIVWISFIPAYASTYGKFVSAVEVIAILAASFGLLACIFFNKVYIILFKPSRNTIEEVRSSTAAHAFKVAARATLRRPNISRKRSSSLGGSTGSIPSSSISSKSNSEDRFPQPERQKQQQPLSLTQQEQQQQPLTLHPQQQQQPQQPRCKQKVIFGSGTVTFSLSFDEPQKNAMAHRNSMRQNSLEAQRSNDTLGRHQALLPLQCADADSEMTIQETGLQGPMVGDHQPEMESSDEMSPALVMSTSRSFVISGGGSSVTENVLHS
T2 sequence (P48442 20-1079 F801A/E837A): as the sequence (P48442 20-1079 S170A) above, with A151S, F782A, E818A counted along it
Experimental: as §1, §2

HA-E837A CaSR mutant = molecular target: T3, HA-E837A CaSR mutant (Rattus norvegicus, UniProt P48442, E837A); assay: IP-One assay, HEK293T transiently transfected; conditions: for effect on the Ca^2+-induced response: E837A mutant; for EC50 / pEC50 ± S.E.M. / Max ± S.E.M.: HA-E837A
T3 construct: mGluR5 signal peptide (N); expressed in transfected cells; host or cells: HEK293T
T3 sequence (P48442 20-1079 E837A): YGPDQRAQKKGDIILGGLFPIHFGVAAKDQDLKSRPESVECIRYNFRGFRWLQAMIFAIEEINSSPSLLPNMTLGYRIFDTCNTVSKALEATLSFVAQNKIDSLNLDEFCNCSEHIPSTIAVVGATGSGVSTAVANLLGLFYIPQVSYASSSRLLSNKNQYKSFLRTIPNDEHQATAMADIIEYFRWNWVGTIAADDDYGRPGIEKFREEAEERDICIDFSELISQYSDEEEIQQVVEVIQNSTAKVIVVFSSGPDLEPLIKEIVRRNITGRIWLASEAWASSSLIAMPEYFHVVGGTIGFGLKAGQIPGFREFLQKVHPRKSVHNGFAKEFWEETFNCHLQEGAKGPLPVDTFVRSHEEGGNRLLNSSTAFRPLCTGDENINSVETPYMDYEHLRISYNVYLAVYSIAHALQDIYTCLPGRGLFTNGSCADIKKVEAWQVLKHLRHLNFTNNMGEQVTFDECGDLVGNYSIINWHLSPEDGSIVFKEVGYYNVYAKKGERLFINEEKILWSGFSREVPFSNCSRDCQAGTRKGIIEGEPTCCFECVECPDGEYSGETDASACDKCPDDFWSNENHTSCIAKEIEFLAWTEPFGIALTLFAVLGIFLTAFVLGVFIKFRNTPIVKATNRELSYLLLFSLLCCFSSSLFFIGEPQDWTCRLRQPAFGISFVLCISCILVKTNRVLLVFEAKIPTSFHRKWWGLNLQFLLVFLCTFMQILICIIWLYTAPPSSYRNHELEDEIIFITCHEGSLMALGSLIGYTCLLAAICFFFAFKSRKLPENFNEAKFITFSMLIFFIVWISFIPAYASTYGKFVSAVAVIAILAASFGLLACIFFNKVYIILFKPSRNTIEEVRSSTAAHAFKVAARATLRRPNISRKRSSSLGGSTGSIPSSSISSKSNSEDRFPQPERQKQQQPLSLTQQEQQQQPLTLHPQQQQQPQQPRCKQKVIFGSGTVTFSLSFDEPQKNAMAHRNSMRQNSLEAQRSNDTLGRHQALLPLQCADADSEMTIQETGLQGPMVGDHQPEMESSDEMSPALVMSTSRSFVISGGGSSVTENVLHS
Experimental: as §1, §2

T1 sequence (P48442 20-1079 S170A/E837A): as the sequence (P48442 20-1079 S170A) above, with E818A counted along it
T1 sequence (P48442 20-1079 F801A/E837A): as the sequence (P48442 20-1079 S170A) above, with A151S, F782A, E818A counted along it

CC(C)(Cc1ccc2ccccc2c1)NC[C@@H](O)COc1cccc(Cl)c1C#N.Cl [NPS 2143, NPS 2143 hydrochloride] was tested, and the “inhibition of Ca^2+-mediated response” value ([1]; S170A/E837A:F801A/E837A heterodimer, 0.2, 1 and 5 μM NPS 2143) was “not subjected to inhibition”, the “inhibition of Ca^2+-mediated response” value ([2]; S170A:F801A/E837A heterodimer, 5 μM NPS 2143) was “full inhibition” and the “effect on the Ca^2+-induced response” value (HA-E837A CaSR mutant; 5 μM NPS 2143) was “neither NPS R-568 nor NPS 2143 had any significant effect”.
In the case of [Ca+2] [Ca^2+], the EC50 (HA-E837A CaSR mutant; Ca^2+ alone) is reported as 3.4 mM, the “pEC50 ± S.E.M.” value (HA-E837A CaSR mutant; Ca^2+ alone) is reported as 2.47 ± 0.01 and the “Max ± S.E.M.” value (HA-E837A CaSR mutant; Ca^2+ alone, normalized to maximum response of WT CaSR) is reported as 87 ± 16%. The EC50 (HA-E837A CaSR mutant; Ca^2+ with 1 μM NPS R-568) was 3.88 mM, the “pEC50 ± S.E.M.” value (HA-E837A CaSR mutant; Ca^2+ with 1 μM NPS R-568) was 2.41 ± 0.04 and the “Max ± S.E.M.” value (HA-E837A CaSR mutant; Ca^2+ with 1 μM NPS R-568, normalized to maximum response with Ca^2+ alone for the construct) was 100 ± 5%. For the same molecule, the EC50 (HA-E837A CaSR mutant; Ca^2+ with 5 μM NPS 2143) was 3.46 mM, the “pEC50 ± S.E.M.” value (HA-E837A CaSR mutant; Ca^2+ with 5 μM NPS 2143) was 2.46 ± 0.02 and the “Max ± S.E.M.” value (HA-E837A CaSR mutant; Ca^2+ with 5 μM NPS 2143, normalized to maximum response with Ca^2+ alone for the construct) was 91 ± 5.7%.
COc1cccc([C@@H](C)NCCCc2ccccc2Cl)c1.Cl [NPS R-568, NPS R-568 hydrochloride] was tested, and the “potentiation of Ca^2+-mediated response” value ([1]; S170A/E837A:F801A/E837A heterodimer, 0.05, 0.1 and 1 μM NPS R-568) was “not potentiated”, the “potentiation of Ca^2+-mediated response” value ([2]; S170A:F801A/E837A heterodimer, 0.05, 0.1 and 1 μM NPS R-568) was “potentiated” and the “effect on the Ca^2+-induced response” value (HA-E837A CaSR mutant; 1 μM NPS R-568) was “neither NPS R-568 nor NPS 2143 had any significant effect”.

— paper PMC5394417, “Investigating the molecular mechanism of positive and negative allosteric modulators in the calcium-sensing receptor dimer” (Scientific Reports, 2017)
